A word on the IC50: it is the midpoint of a concentration-inhibition curve. A lower IC50 goes with greater potency.

Results on 5 compounds are retold here after patent publication US8071651B2, “5-amino-4-hydroxy-7-(imidazo [1,2-A] pyridin-6-ylmethyl)-8-methyl-nonamide derivatives and related compounds as renin inhibitors for the treatment of hypertension” (Novartis AG, priority 2005, dated 2011).

In this assay the target is T1, renin (Homo sapiens, UniProt P00797).
T1 construct: This test measures the formation of angiotensin I in human plasma; from tissue; host or cells: human plasma
T1 sequence (P00797 67-406): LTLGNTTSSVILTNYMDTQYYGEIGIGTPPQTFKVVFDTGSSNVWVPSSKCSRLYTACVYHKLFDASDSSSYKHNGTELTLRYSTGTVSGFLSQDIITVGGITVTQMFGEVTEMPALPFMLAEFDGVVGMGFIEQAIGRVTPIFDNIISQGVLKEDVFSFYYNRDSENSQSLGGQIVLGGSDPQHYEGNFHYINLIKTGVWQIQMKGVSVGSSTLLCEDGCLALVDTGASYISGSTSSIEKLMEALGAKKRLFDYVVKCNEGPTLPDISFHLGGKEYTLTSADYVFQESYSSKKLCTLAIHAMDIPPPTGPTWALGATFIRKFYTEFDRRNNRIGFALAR
The experiment in a line: in vitro test of Nussberger et al.: formation of angiotensin I in human plasma, determined by radio-immunoassay. The assay is classed as biochemical. To be noted: concentration of inhibitor which reduces the formation of angiotensin I in human plasma by 50%. As for the experimental part: The effect of renin inhibitors is detected inter alia experimentally by means of in vitro tests where the reduction in the formation of angiotensin I is measured in various systems (human plasma, purified human renin together with synthetic or natural renin substrate). The following in vitro test of Nussberger et al. (1987) J. Cardiovascular Pharmacol., Vol. 9, pp. 39-44, is used, inter alia. This test measures the formation of angiotensin I in human plasma. The amount of angiotensin I formed is determined in a subsequent radio-immunoassay. The effect of inhibitors on the formation of angiotensin I is tested in this system by adding various concentrations of these substances. The IC50 is defined as the concentration of the particular inhibitor which reduces the formation of angiotensin I by 50%. The compounds of the present invention show inhibitory effects in the in vitro systems at minimal concentrations of about 10^−6 to about 10^−10 mol/l.
On to `COCCCCc1cc(CC(CC(N)C(O)CC(C(=O)NCC2C3COCC23)C(C)C)C(C)C)cnc1OC` (centres unmarked) [Example 36BBBB], for which the IC50 was 4.8 nM.

Compound `COCCCCc1cc(CC(CC(N)C(O)CC(C(=O)NCC2CCOCC2)C(C)C)C(C)C)cc(C)n1` (centres unmarked) [Example 32JJJ] registered a 50% inhibitory concentration (IC50) of 2.6 nM.

In turn, `COCCCCc1cc(CC(CC(N)C(O)CC(C(=O)NCC2CC23CCOCC3)C(C)C)C(C)C)cnc1OC` (centres unmarked) [Example 36IIII] displayed a concentration for half-maximal inhibition (IC50) of 3.5 nM.

`COCCCCc1cc(CC(CC(N)C(O)CC(C(=O)NC2C3COCC32)C(C)C)C(C)C)cnc1OC` (centres unmarked) [Example 36DDDD] returned a half-inhibitory concentration (IC50) of 3.1 nM.

For `COCCCCc1cc(CC(CC(N)C(O)CC(C(=O)NCC2CC23CCOCC3)C(C)C)C(C)C)cnc1OC` (centres unmarked) [Example 36HHHH], half-maximal inhibition (IC50) required 2.9 nM.
